# Experimental data as given in ChEMBL document CHEMBL1124452, “New sensitizers for photodynamic therapy: controlled synthesis of purpurins and their effect on normal tissue” (1989).
# Test system: Rattus norvegicus
# Assay: In vivo cytotoxicity to the FANFT-induced urothelial cell carcinoma transplanted onto Fischer CDF (F344/CrlBR) rats (Tumoricidal activity)
# Type: functional
row,SMILES,Therapeutic dose [mg/kg]
1,CCOC(=O)C1=Cc2c3nc(cc4nc(cc5[nH]c(cc6[nH]c2c(C)c6CC)c(C)c5CC)C(C)=C4CC)C(C)C13CC (configuration not stated) [ETIOPURPURIN],2.5
2,CCOC(=O)C1=Cc2c3nc(cc4nc(cc5[nH]c(cc6[nH]c2c(CC)c6CC)c(CC)c5CC)C(CC)=C4CC)C(CC)C13CC (configuration not stated) [OCTAETHYLPURPURIN],5
